Data reported in patent US20250000989A1, “PYRROLO BENZODIAZEPINE DERIVATIVE, AND CONJUGATE, PREPARATION METHOD AND USE THEREOF” (priority 2021, published 2025).
pIC50: −log10 of the molar value.

Assays:
Test in all cases: Inhibition of in vitro proliferation of tumor cells by PBD compounds (CTG)
Format in all cases: cell-based
[1] = system: MKN45 (human gastric cancer cells); settings: MKN-45, 144 h, 6 days of culture
Procedure: (§1) The objective of this assay is to measure the activity of the compounds of the present disclosure in inhibiting the proliferation of different tumor cell lines: SK-BR-3 tumor cells (human breast cancer cells, ATCC, Cat. No. HTB-30), NCI-H23 (human non-small cell lung cancer cells, Nanjing Cobioer, Cat. No. CBP60132), and MKN45 (human gastric cancer cells, Nanjing Cobioer, Cat. No. CBP60488). The cells were treated in vitro with different concentrations of the compounds. After 6 days of culture, the proliferation of the cells was measured using CTG (CellTiter-Glo® Luminescent Cell Viability Assay, Promega, Cat. No. G7573) reagent, and the in vitro activity of the compounds was evaluated based on their IC50 values.
(§2) • 1. Cell culture: SK-BR-3, NCI-H23, and MKN45 cells were separately cultured in McCoy's 5A medium (ThermoFisher, Cat. No. 16600108) and RPMI 1640 medium (ThermoFisher, Cat. No. 11875119) containing 10% FBS (Gibco, 10099-141). • 2. Cell plating: After being digested with trypsin (0.25% Trypsin-EDTA (1×), Life Technologies, Cat. No. 25200-072), the SK-BR-3, NCI-H23, and MKN45 were resuspended in their respective media and counted. The density was adjusted to 1.48×10^4 cells/mL, and the cells were plated onto 96-well plates (corning, Cat. No. 3903) at 135 μL/well, i.e., 2000 cells/well, and cultured at 37° C. for 24 h. • 3. Drug formulation: PBD drugs were formulated in round-bottom 96-well plates. Plate 1: In the first column, the concentration was 0.05 mM; in the second column through the fourth column, a 3-fold serial dilution was performed in DMSO; in the fifth column through the sixth column, a 5-fold serial dilution was performed in DMSO; in the seventh column through the ninth column, a 10-fold serial dilution was performed in DMSO; and the tenth column contained DMSO. Plate 2: Corresponding media were added to the first column through the tenth column at 196 μL/well; 4 μL of solution was transferred from each well of the first column through the tenth column of plate 1 to plate 2 and well mixed with the medium; 15 μL of the mixture was added to the cells plated the day before, and the cells were cultured at 37° C. for another 6 days. • 4. CTG assay: The cell culture plates were taken out and equilibrated to room temperature. CTG was added at 75 μL/well, and the plates were incubated at room temperature in the dark for 10 min. Then luminescence values were measured on a microplate reader (BMG labtech, PHERAstar FS).

[2] = system: SK-BR-3 tumor cells (human breast cancer cells); settings: 144 h, 6 days of culture
Procedure: as §1, §2

[3] = system: NCI-H23 (human non-small cell lung cancer cells); settings: 144 h, 6 days of culture
Procedure: as §1, §2

Compound | pIC50 [1] | pIC50 [2] | pIC50 [3]
COc1ccc(C2=CN3C(=O)c4cc(OC)c(OCCCCCOc5cc6c(cc5OC)C(=O)N5[C@H](C=N6)C[C@@H]6C[C@@H]65)cc4NC[C@@H]3C2)cc1 [2-21, (1aS,9aS,10aS)-5-Methoxy-6-((5-(((S)-7-methoxy-2-(4-methoxyphenyl)-5-oxo-5,10,11,11a-tetrahydro-1H-benzo[e]pyrrolo[1,2-a][1,4]diazepin-8-yl)oxy)pentyl)oxy)-1a,9a,10,10a-tetrahydrobenzo[e]cyclopropa[4,5]pyrrolo[1,2-a][1,4]diazepin-3(1H)-one] | 9.24 | 9.55 | 9.92
COc1ccc(C2=CN3C(=O)c4cc(OC)c(OCCCCCOc5cc6c(cc5OC)C(=O)N5CC7(CC7)C[C@H]5C=N6)cc4NC(=O)[C@@H]3C2)cc1 [2-22, (S)-7-Methoxy-8-((5-(((S)-7-methoxy-5-oxo-5,11a-dihydro-1H,3H-spiro[benzo[e]pyrrolo[1,2-a][1,4]diazepine-2,1′-cyclopropan]-8-yl)oxy)pentyl)oxy)-2-(4-methoxyphenyl)-1,11a-dihydro-5H-benzo[e]pyrrolo[1,2-a][1,4]diazepine-5,11(10H)-dione] | 9.77 | 9.59 | 10.10
COc1ccc(C2=CN3C(=O)c4cc(OC)c(OCCOCCOc5cc6c(cc5OC)C(=O)N5CC7(CC7)C[C@H]5C=N6)cc4NC[C@@H]3C2)cc1 [2-26, (S)-7-Methoxy-8-(2-(2-(((S)-7-methoxy-2-(4-methoxyphenyl)-5-oxo-5,10,11,11a-tetrahydro-1H-benzo[e]pyrrolo[1,2-a][1,4]diazepin-8-yl)oxy)ethoxy)ethoxy)-1,11a-dihydro-3H,5H-spiro[benzo[e]pyrrolo[1,2-a][1,4]diazepine-2,1′-cyclopropan]-5-one] | 8.62 | 8.67 | 8.53
COc1ccc(C2=CN3C(=O)c4cc(OC)c(OCCCCCOc5cc6c(cc5OC)C(=O)N5CC7(CC7)C[C@H]5CN6)cc4NC[C@@H]3C2)cc1 [2-27, (S)-7-Methoxy-8-((5-(((S)-7-methoxy-2-(4-methoxyphenyl)-5-oxo-5,10,11,11a-tetrahydro-1H-benzo[e]pyrrolo[1,2-a][1,4]diazepin-8-yl)oxy)pentyl)oxy)-1,10,11,11a-tetrahydro-3H,5H-spiro[benzo[e]pyrrolo[1,2-a][1,4]diazepine-2,1′-cyclopropan]-5-one] | 8.12 | 8.30 | 8.14
COc1ccc(C2=CN3C(=O)c4cc(OC)c(OCc5cncc(COc6cc7c(cc6OC)C(=O)N6CC8(CC8)C[C@H]6C=N7)c5)cc4NC[C@@H]3C2)cc1 [2-29] | 10.70 | 10.10 | 10.70
COc1cc2c(cc1OCCCCCOc1cc3c(cc1OC)C(=O)N1C=C(c4ccc(N5CCN(CCO)CC5)cc4)C[C@H]1CN3)N=C[C@@H]1CC3(CC3)CN1C2=O [2-30, (S)-8-((5-(((S)-2-(4-(4-(2-Hydroxyethyl)piperazin-1-yl)phenyl)-7-methoxy-5-oxo-5,10,11,11a-tetrahydro-1H-benzo[e]pyrrolo[1,2-a][1,4]diazepin-8-yl)oxy)pentyl)oxy)-7-methoxy-1,11a-dihydro-3H,5H-spiro[benzo[e]pyrrolo[1,2-a][1,4]diazepine-2,1′-cyclopropan]-5-one] | 10.40 | 9.68 | 10.70
COc1cc2c(cc1OCCCCCOc1cc3c(cc1OC)C(=O)N1C=C(c4ccc(N5CCN(C[C@@H](O)CO)CC5)cc4)C[C@H]1CN3)N=C[C@@H]1CC3(CC3)CN1C2=O [2-31, (S)-8-((5-(((S)-2-(4-(4-((R)-2,3-Dihydroxypropyl)piperazin-1-yl)phenyl)-7-methoxy-5-oxo-5,10,11,11a-tetrahydro-1H-benzo[e]pyrrolo[1,2-a][1,4]diazepin-8-yl)oxy)pentyl)oxy)-7-methoxy-1,11a-dihydro-3H,5H-spiro[benzo[e]pyrrolo[1,2-a][1,4]diazepine-2,1′-cyclopropan]-5-one] | 10.00 | 9.43 | 10.10
COc1cc2c(cc1OCCCCCOc1cc3c(cc1OC)C(=O)N1C=C(c4ccc(N5CCN(C(=O)CO)CC5)cc4)C[C@H]1CN3)N=C[C@@H]1CC3(CC3)CN1C2=O [2-32, (S)-8-((5-(((S)-2-(4-(4-(2-Hydroxyacetyl)piperazin-1-yl)phenyl)-7-methoxy-5-oxo-5,10,11,11a-tetrahydro-1H-benzo[e]pyrrolo[1,2-a][1,4]diazepin-8-yl)oxy)pentyl)oxy)-7-methoxy-1,11a-dihydro-3H,5H-spiro[benzo[e]pyrrolo[1,2-a][1,4]diazepine-2,1′-cyclopropan]-5-one] | 9.89 | 9.11 | 10.05
COc1cc2c(cc1OCCCCCOc1cc3c(cc1OC)C(=O)N1C=C(c4ccc(N5CCN(C[C@H](O)CO)CC5)cc4)C[C@H]1CN3)N=C[C@@H]1CC3(CC3)CN1C2=O [2-33, (S)-8-((5-(((S)-2-(4-(4-((S)-2,3-Dihydroxypropyl)piperazin-1-yl)phenyl)-7-methoxy-5-oxo-5,10,11,11a-tetrahydro-1H-benzo[e]pyrrolo[1,2-a][1,4]diazepin-8-yl)oxy)pentyl)oxy)-7-methoxy-1,11a-dihydro-3H,5H-spiro[benzo[e]pyrrolo[1,2-a][1,4]diazepine-2,1′-cyclopropan]-5-one] | 9.42 | 9.14 | 9.52
COc1cc2c(cc1OCCCCCOc1cc3c(cc1OC)C(=O)N1C=C(c4ccc(SCC5CC5)cc4)C[C@H]1CN3)N=C[C@@H]1CC3(CC3)CN1C2=O [2-34, (S)-8-((5-(((S)-2-(4-((Cyclopropylmethyl)thio)phenyl)-7-methoxy-5-oxo-5,10,11,11a-tetrahydro-1H-benzo[e]pyrrolo[1,2-a][1,4]diazepin-8-yl)oxy)pentyl)oxy)-7-methoxy-1,11a-dihydro-3H,5H-spiro[benzo[e]pyrrolo[1,2-a][1,4]diazepine-2,1′-cyclopropan]-5-one] | 8.86 | 8.85 | 9.21
COc1cc2c(cc1OCCCCCOc1cc3c(cc1OC)C(=O)N1C=C(c4ccc(SC5CCC5)cc4)C[C@H]1CN3)N=C[C@@H]1CC3(CC3)CN1C2=O [2-35, (S)-8-((5-(((S)-2-(4-(Cyclobutylthio)phenyl)-7-methoxy-5-oxo-5,10,11,11a-tetrahydro-1H-benzo[e]pyrrolo[1,2-a][1,4]diazepin-8-yl)oxy)pentyl)oxy)-7-methoxy-1,11a-dihydro-3H,5H-spiro[benzo[e]pyrrolo[1,2-a][1,4]diazepine-2,1′-cyclopropan]-5-one] | 8.56 | 8.77 | 9.08
COc1cc2c(cc1OCCCCCOc1cc3c(cc1OC1CC1)C(=O)N1CC4(CC4)C[C@H]1C=N3)NC[C@@H]1CC(c3ccc(C4CCOCC4)cc3)=CN1C2=O [2-39, (S)-7-Cyclopropoxy-8-((5-(((S)-7-methoxy-5-oxo-2-(4-(tetrahydro-2H-pyran-4-yl)phenyl)-5,10,11,11a-tetrahydro-1H-benzo[e]pyrrolo[1,2-a][1,4]diazepin-8-yl)oxy)pentyl)oxy)-1,11a-dihydro-3H,5H-spiro[benzo[e]pyrrolo[1,2-a][1,4]diazepine-2,1′-cyclopropan]-5-one] | 9.08 | 9.24 | 9.41
